According to the supplement of paper PMC10307832:

Legend:
Test in all cases: relative viability (nuclei count vs DMSO), 5 days (fraction); higher = more cells survive
NCI-H1355 = conditions: first compound 0.02 µM
Method in brief: (§1)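 Relative viability was taken as the ratio of nuclei in treated wells to nuclei in vehicle wells. Lung cancer cell lines in 1536-well plates received compounds by pin tool one day after seeding, either one drug alone or a fixed anchor-drug dose plus five library-drug doses (not always all listed) in √10 steps. Nuclei were counted on 4× images after 5 days of treatment, and values are medians of duplicate plates.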

NCI-H1975 = test system: NCI-H1975
Method in brief: as §1

NCI-H838 = test system: NCI-H838
Method in brief: as §1

NCI-H1944 = test system: NCI-H1944
Method in brief: as §1

LXF-289 = test system: LXF-289
Method in brief: as §1

NCI-H1666 = test system: NCI-H1666
Method in brief: as §1

LU99A = test system: LU99A
Method in brief: as §1

ChaGo-K-1 = test system: ChaGo-K-1
Method in brief: as §1

LC-2-ad = test system: LC-2-ad
Method in brief: as §1

LK-2 = test system: LK-2
Method in brief: as §1

BEN = test system: BEN
Method in brief: as §1

HCC-78 = test system: HCC-78
Method in brief: as §1

SMILES: CC(=O)O[C@@]12CO[C@@H]1C[C@H](O)[C@@]1(C)C(=O)[C@H](O)C3=C(C)[C@@H](OC(=O)[C@H](O)[C@@H](NC(=O)OC(C)(C)C)c4ccccc4)C[C@@](O)([C@@H](OC(=O)c4ccccc4)[C@H]21)C3(C)C [Docetaxel] + COc1cccc2cc(-c3nc([C@H]4CC[C@H](C(=O)O)CC4)n4ncnc(N)c34)[nH]c12 [OSI-027] (partner 0.5 µM)
- relative viability (NCI-H1355): 0.198
- relative viability (NCI-H1975; first compound 0.0002 µM): 0.66
- relative viability (NCI-H1975; first compound 0.000632 µM): 0.479
- relative viability (NCI-H1975; first compound 0.002 µM): 0.217
- relative viability (NCI-H1975; first compound 0.006325 µM): 0.16
- relative viability (NCI-H1975; first compound 0.02 µM): 0.11
- relative viability (NCI-H838; first compound 0.0002 µM): 0.331
- relative viability (NCI-H838; first compound 0.000632 µM): 0.422
- relative viability (NCI-H838; first compound 0.002 µM): 0.259
- relative viability (NCI-H838; first compound 0.006325 µM): 0.16
- relative viability (NCI-H838; first compound 0.02 µM): 0.134
- relative viability (NCI-H1944; first compound 0.0002 µM): 0.38
- relative viability (NCI-H1944; first compound 0.000632 µM): 0.423
- relative viability (NCI-H1944; first compound 0.002 µM): 0.26
- relative viability (NCI-H1944; first compound 0.02 µM): 0.139
- relative viability (LXF-289; first compound 0.0002 µM): 0.819
- relative viability (LXF-289; first compound 0.000632 µM): 0.652
- relative viability (LXF-289; first compound 0.006325 µM): 0.117
- relative viability (LXF-289; first compound 0.02 µM): 0.067
- relative viability (NCI-H1666; first compound 0.0002 µM): 0.739
- relative viability (NCI-H1666; first compound 0.000632 µM): 0.641
- relative viability (NCI-H1666; first compound 0.002 µM): 0.574
- relative viability (NCI-H1666; first compound 0.006325 µM): 0.491
- relative viability (NCI-H1666; first compound 0.02 µM): 0.322
- relative viability (LU99A; first compound 0.0002 µM): 0.293
- relative viability (LU99A; first compound 0.002 µM): 0.29
- relative viability (LU99A; first compound 0.006325 µM): 0.247
- relative viability (LU99A; first compound 0.02 µM): 0.202
- relative viability (ChaGo-K-1; first compound 0.0002 µM): 0.554
- relative viability (ChaGo-K-1; first compound 0.000632 µM): 0.459
- relative viability (ChaGo-K-1; first compound 0.002 µM): 0.301
- relative viability (ChaGo-K-1; first compound 0.006325 µM): 0.23
- relative viability (ChaGo-K-1; first compound 0.02 µM): 0.129
- relative viability (LC-2-ad; first compound 0.0002 µM): 0.598
- relative viability (LC-2-ad; first compound 0.000632 µM): 0.589
- relative viability (LC-2-ad; first compound 0.002 µM): 0.441
- relative viability (LC-2-ad; first compound 0.006325 µM): 0.415
- relative viability (LK-2; first compound 0.0002 µM): 0.208
- relative viability (LK-2; first compound 0.000632 µM): 0.186
- relative viability (LK-2; first compound 0.002 µM): 0.159
- relative viability (LK-2; first compound 0.006325 µM): 0.171
- relative viability (LK-2; first compound 0.02 µM): 0.153
- relative viability (BEN; first compound 0.0002 µM): 0.283
- relative viability (BEN; first compound 0.000632 µM): 0.285
- relative viability (BEN; first compound 0.002 µM): 0.241
- relative viability (BEN; first compound 0.006325 µM): 0.181
- relative viability (BEN; first compound 0.02 µM): 0.165
- relative viability (HCC-78; first compound 0.0002 µM): 0.321
- relative viability (HCC-78; first compound 0.000632 µM): 0.308
- relative viability (HCC-78; first compound 0.002 µM): 0.315
- relative viability (HCC-78; first compound 0.006325 µM): 0.278
- relative viability (HCC-78; first compound 0.02 µM): 0.284
